Results as given in publication PMC7866087, “Evaluation of Computationally Designed Peptides against TWEAK, a Cytokine of the Tumour Necrosis Factor Ligand Family” (International Journal of Molecular Sciences, 2021).
“And” between values parts separate entries of the source, which are not always exact repeats. Equal values may be shown once. No end group written: not given here.

What was measured:
[1] = system: TWEAK-Fn14 signalling pathway, BRV5 cells; experiment: Cell-based screening of individual peptides, gene expression microarray in TWEAK-stimulated BRV5 cells; set-up: species or system human; conditions: 6 h; for BIRC2 mRNA expression (normalized to NARS2) / HSP90B1 mRNA expression (normalized to NARS2) / IL6 mRNA expression (normalized to NARS2) / JUN mRNA expression (normalized to NARS2) / MAP4K4 mRNA expression (normalized to NARS2) / MAPK14 mRNA expression (normalized to NARS2) / NFKB2 mRNA expression (normalized to NARS2) / TNFRSF12A mRNA expression (normalized to NARS2) / TRAF2 mRNA expression (normalized to NARS2): 450 µM
From the text: Pool 1 and 5 were therefore deconstructed to assess the effect of individual peptides and their activity on same cell-based screening. Pools 1 and 5 were composed of peptides 45, 46, 42, 3, 49, 11, and 13; and of peptides 1, 9, 30, 35, 41, 43, 7, and 14, respectively. As before, and shown in Figure 4B, the level of expression of probe genes on TWEAK-stimulated (T) BRV5 cells is overall higher than on non-stimulated (NT) one. […] The structural model of peptides 43, 30, 35 and 49 bound to TWEAK can be seen in Figure 5 and Supplementary Materials Figures S4–S6, respectively.
Three different cell lines were used in this study: BRV5, MDA-MB 435 (435-P), and HT29. The BRV5 is a highly metastatic brain cell line, obtained in one of our laboratories by primary culture from a brain of a nude mouse inoculated with human 435-Br1 brain metastatic cells, as previously described and used as a model to test the peptides in cell cultures. […] The triple negative 435-P cell line is a useful human breast cancer model that expresses both epithelial and melanocytic markers, and was included as the parental cell from which 435-Br1 metastatic variant was initially originated (both cell lines kindly provided by Dr Fabra at IDIBELL Institute, Hospitalet de Llobregat, Spain). Finally, HT29 human colon carcinoma cells obtained from the European Type Culture Collection (ECACC 91072201) were used as a positive control of TWEAK dependent Fn14 over-expressing cells to evaluate TWEAK-Fn14 axis of brain metastatic variants.
Appropriate cell culture conditions were established as the controls needed in the expression of genes with and without peptides and with and without TWEAK activation, both as pools and individually (see Supplementary Materials Figure S2). The protocol started with the seeding of 125,000 cells/well in 500 µL of culture media supplemented with 10% fetal bovine serum (CM+FBS10%) in 24-well dishes for 24 h before removing FBS (CM-FBS). After overnight starvation in CM-FBS culture, different peptide treatment conditions (at final concentration of 450 µM) were established in the presence or absence of TWEAK (25 ng/mL final concentration) (Peprotech EC, Ltd., London, UK). Some cells were treated with peptides at a single, unique, initial dose (time 0) while other were treated with repeated doses to account for the effect cell-culture degradation. These include a repeated treatment every hour (i.e., […]), every two hours (time 0, 2, and 4) and every three hours (time 0 and 3)—see Supplementary Materials Figure S2 for diagrammatic depiction. At time 6 (after six hours) cells were lysed and RNA extracted for transcriptomic analyses (see next). Cell were culture for six hours as this was the time needed to achieve the highest upregulation of the TWEAK-Fn14 axis upon TWEAK treatment as shown in previous time-course RT-PCR experiments (see Figure 2).
RNA from cells was extracted 6 h after treatments by direct lysis on the well. The RNeasy Micro kit (Qiagen, Hilden, Germany) was used to isolate total RNA from cell lysate following manufacturer’s protocols including an additional step of digestion with DNase I (Qiagen, Hilden, Germany). Total RNA concentration was measured in a NanoDrop 1000 spectrophotometer (Thermo Scientific, Waltham, MA, USA). The RNA extracted from treated and untreated cells (see above) was used as a proxy for gene expression.
The quantitative RT-PCR was performed using Fluidigm Dynamic Array FlexSix array with the specific primers for gene expression (Delta Genes Assays, Wet lab tested on Dynamic Array IFC) designed to RefSeq for detection by pPCR EvaGreen assay (Dynamic Array FlexSix, Fluidigm Corporation). Each Flex Six IFC has a total of six independent partitions. Each partition has a 12 × 12 format (12 assay inlets and 12 sample inlets) and will be run independently as a separate experimental run. […]

human His6-TWEAK protein = target: T1, human His6-TWEAK protein (Homo sapiens, UniProt O43508); experiment: SPR binding of peptides to immobilized His6-TWEAK; conditions: 25 °C, 1:1 Langmuir global fit, representative of at least three independent experiments
T1 construct: purchased R&D Systems
T1 sequence (O43508 97-249 limits assumed): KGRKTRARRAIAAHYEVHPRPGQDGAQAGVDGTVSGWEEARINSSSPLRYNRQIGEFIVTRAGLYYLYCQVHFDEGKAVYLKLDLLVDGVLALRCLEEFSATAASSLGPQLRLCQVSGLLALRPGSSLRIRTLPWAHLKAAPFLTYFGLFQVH
From the text: SPR biosensor interaction analysis, a label-free screening approach, was used for real-time monitoring of the kinetics and affinity of peptide hits to TWEAK previously identified by cell-based screening. Peptides from pools 1 and 5 were selected both as positive (49, 30, 35 and 43) and negative hits (1 and 42). For our purposes, TWEAK was chosen as ligand, while peptides were chosen as analytes and passed across ligand-derivatized surface. Nitrilotriacetic acid-coated sensor chips (NTA chip) and a coupling approach that results in the capture of a His6-protein in a non-random orientation by the His6 epitope prior to direct free amine-based covalent coupling was used for histidine-tagged TWEAK immobilization.
After chip validation, peptides selected on our cell-based microarray screening were tested.
For each titration, a zero-analyte surface as a control was subtracted from test sensorgram as well as non-specific binding to the blank flow cell without protein; and the chip surface was regenerated in order to remove any remaining analyte. The black curves show the experimental data, while the overlaid red lines represent a global fit of the entire data set to a 1:1 Langmurian interaction model. The fitting process provided both kinetic association and dissociation rate constants (Ka and Kd), as well as equilibrium dissociation constant (KD) values indicated in Figure 6.
Binding assays were performed at 25 °C in a Biacore 3000 instrument (GE Healthcare, Uppsala, Sweden) using nitrilotriacetic (NTA) sensor chips (GE Healthcare) and HBS-EP (0.01 M HEPES pH 7.4, 0.15 M NaCl, 3 mM EDTA, 0.005 % v/v Surfactant P20) as running buffer. Histidine-tagged human TWEAK (His6-TWEAK) protein (R&D Systems, Minneapolis, MN, USA) was covalently immobilized on the sensor surface using a capture coupling method. Briefly, the NTA surface was first stabilized by injection of regeneration buffer (20 μL EDTA-containing running buffer at 20 μL/min) followed by Ni^2+ binding to the surface (40 μL of 500 μM NiCl2 in running buffer at 20 μL/min). The carboxymethyl dextran surface was then activated for primary amine coupling by injecting coupling solution (30 μL of a 1:1 N-hydroxysuccinimide (NHS)/1-ethyl-3-[3-(dimethylamino)-propyl]carbodiimide hydrochloride (EDC) mixture at 5 μL/min). His6-TWEAK protein in pH 7.4 running buffer was then injected over the surface (60 μL of 10 μg/mL His6-TWEAK at 5 μL/min). To block uncoupled primary amines on the sensor surface, ethanolamine was passed over the surface (35 μL 1M ethanolamine at 5 μL/min). Ligand surfaces were finally conditioned with a 20 µL injection of regeneration solution containing 350 mM EDTA at 20 μL/min. Immobilization levels ranged from 1500 to 7000 resonance units (RUimmob) to test different ligand densities. A blank flow cell on the chip was created by simple injection of 20 μL of regeneration buffer injected over the sensor surface.
Binding experiments using a monoclonal anti-TWEAK antibody (Abcam ref. 199405, Cambridge, UK) were run to ascertain adequate functionalization of the immobilized surface. Selected synthetic TWEAK-Fn14 inhibitory peptides at two-fold serial dilutions from 800 µM to 0 µM in running buffer were flown over the chip for 5 min at 35 µL/min. The dissociation phase was monitored for 10 min at the same flow rate and followed by a regeneration step with 10 µL of 18 mM NaOH. Specific binding responses for each channel were obtained by double referencing; subtracting non-specific binding to the blank flow cell plus an internal reference standard, namely buffer injection response. Each sample was run in triplicate. The experimental data were fitted to a 1:1 Langmuir binding model by the BIAevaluation software version 4.1 (GE Healthcare, Uppsala, Sweden).

[2] = individual peptides, BRV5 + TWEAK, mean of replicate columns
[3] = individual peptides, BRV5 + TWEAK, replicate column 1
[4] = individual peptides, BRV5 + TWEAK, replicate column 2
[5] = individual peptides, BRV5 + TWEAK, normalized to NARS2, listed as P3

Q: For TKGGGTADA [Peptide 3], which “regulation of probe genes by individual peptides” value ([1]; BRV5 + TWEAK 25 ng/mL, peptides 450 µM) is on record?
A: induced a higher level of expression of the gene

Q: What about the “BIRC2 mRNA expression (normalized to NARS2)” value [1, 2] of the same substance?
A: 0.7197

Q: And the “HSP90B1 mRNA expression (normalized to NARS2)” value [1, 2]?
A: 3.909

Q: And the “IL6 mRNA expression (normalized to NARS2)” value [1, 2]?
A: 0.003239

Q: What about the “JUN mRNA expression (normalized to NARS2)” value [1, 2] of the same substance?
A: 0.1441

Q: And the “MAP4K4 mRNA expression (normalized to NARS2)” value [1, 2]?
A: 0.2389

Q: And the “MAPK14 mRNA expression (normalized to NARS2)” value [1, 2]?
A: 0.2205

Q: And the “NFKB2 mRNA expression (normalized to NARS2)” value [1, 2]?
A: 0.05335

Q: What about the “TNFRSF12A mRNA expression (normalized to NARS2)” value [1, 2] of the same substance?
A: 0.03024

Q: What about the “TRAF2 mRNA expression (normalized to NARS2)” value [1, 2] of the same substance?
A: 0.009427

Q: And the “BIRC2 mRNA expression (normalized to NARS2)” value [1, 3]?
A: 0.6856

Q: And the “HSP90B1 mRNA expression (normalized to NARS2)” value [1, 3]?
A: 3.773

Q: What about the “IL6 mRNA expression (normalized to NARS2)” value [1, 3] of the same substance?
A: 0.004016

Q: And the “JUN mRNA expression (normalized to NARS2)” value [1, 3]?
A: 0.1498

Q: And the “MAP4K4 mRNA expression (normalized to NARS2)” value [1, 3]?
A: 0.2356

Q: What about the “MAPK14 mRNA expression (normalized to NARS2)” value [1, 3] of the same substance?
A: 0.2165

Q: And the “NFKB2 mRNA expression (normalized to NARS2)” value [1, 3]?
A: 0.05516

Q: And the “TNFRSF12A mRNA expression (normalized to NARS2)” value [1, 3]?
A: 0.03211

Q: What about the “TRAF2 mRNA expression (normalized to NARS2)” value [1, 3] of the same substance?
A: 0.009734

Q: What about the “BIRC2 mRNA expression (normalized to NARS2)” value [1, 4] of the same substance?
A: 0.7537

Q: What about the “HSP90B1 mRNA expression (normalized to NARS2)” value [1, 4] of the same substance?
A: 4.045

Q: What about the “IL6 mRNA expression (normalized to NARS2)” value [1, 4] of the same substance?
A: 0.002462

Q: And the “JUN mRNA expression (normalized to NARS2)” value [1, 4]?
A: 0.1383

Q: And the “MAP4K4 mRNA expression (normalized to NARS2)” value [1, 4]?
A: 0.2421

Q: And the “MAPK14 mRNA expression (normalized to NARS2)” value [1, 4]?
A: 0.2245

Q: What about the “NFKB2 mRNA expression (normalized to NARS2)” value [1, 4] of the same substance?
A: 0.05153

Q: What about the “TNFRSF12A mRNA expression (normalized to NARS2)” value [1, 4] of the same substance?
A: 0.02838

Q: And the “TRAF2 mRNA expression (normalized to NARS2)” value [1, 4]?
A: 0.00912

Q: And the “BIRC2 expression Z-Score” value [1, 5]?
A: 1.1157 and 1.116

Q: What about the “HSP90B1 expression Z-Score” value [1, 5] of the same substance?
A: 2.9702 and 2.97

Q: What about the “IL6 expression Z-Score” value [1, 5] of the same substance?
A: 1.1687 and 1.169

Q: What about the “JUN expression Z-Score” value [1, 5] of the same substance?
A: 0.5369

Q: What about the “MAP4K4 expression Z-Score” value [1, 5] of the same substance?
A: 1.3444 and 1.344

Q: And the “MAPK14 expression Z-Score” value [1, 5]?
A: 0.3511

Q: And the “NFKB2 expression Z-Score” value [1, 5]?
A: 1.2258 and 1.226

Q: And the “TNFRSF12A expression Z-Score” value [1, 5]?
A: 1.1044 and 1.104

Q: What about the “TRAF2 expression Z-Score” value [1, 5] of the same substance?
A: -0.4866

Q: For TTDGSTGDDLQA-NH2 [Peptide 43], which kon (human His6-TWEAK protein; HBS-EP pH 7.4, Biacore 3000, NTA chip, read-out: ka) is on record?
A: 20.5 M⁻¹ s⁻¹

Q: What about the Kd (human His6-TWEAK protein; figure 6, HBS-EP pH 7.4, 6.25 µM to 800 µM peptide) of the same substance?
A: 173 µM
